The values that follow come from PubChem BioAssay AID179 (DTP/NCI, 2004).

Where “and” joins values, the source holds several entries; their conditions need not be identical. Equal values may be shown once. Calls of active or inactive are those of the source.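 How the source made its calls: active means compounds giving half or more protection of infected cells from virus-caused growth loss, again on retest; inactive means the rest.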

For the assay, the system named is CEM cells HIV-1 protection, formazan growth assay. As to the kind of experiment: NCI AIDS Antiviral Assay. The following applies: for IC50: measured here: growth of uninfected CEM cells. The essentials:
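Protection of CEM cells against HIV-1 measured as cell growth via soluble formazan read-out, with five concentrations tested on both infected and uninfected cells; failure to protect may reflect toxicity.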

Take `COc1ccc(C2c3cc4c(cc3OC(N3CCOCC3)C2C)OCO4)cc1OC` (centres undefined): the EC50 (usually the concentration needed to bring the measured effect to its halfway point) was above 200 µM and the IC50 (as a rule, the midpoint of a concentration-inhibition curve) amounted to 7.76 µM.
Turning to `COc1cc(/C=C/c2nc(N)nnc2C)cc(OC)c1OC`, the EC50 is above 200 µM and the IC50 amounted to 2.82 µM.
The like results for `O=C1CC(c2ccoc2)NC(=O)N1CCCl` (centres undefined) were, in that order, above 200 µM and above 200 µM.
`CN(CC1=C(O)C(=O)C(CN(C)Cc2c(O)ccc3ccccc23)=C(O)C1=O)Cc1c(O)ccc2ccccc12`: the EC50 is above 17.4 µM and the IC50 was above 17.4 µM.
Turning to `CC1NOC(=O)C1N=Nc1ccccc1Cl` (centres undefined), the EC50 was above 151 µM and the IC50 was 70.8 µM.
Regarding `O=S(=O)(O)c1cc(N=Nc2ccc(O)cc2O)ccc1/C=C/c1ccc(N=Nc2ccc(O)cc2O)cc1S(=O)(=O)O`, the EC50 was above 70.8 µM and the IC50 is 66.1 µM.
On to `CNS(=O)(=O)NN(C)S(=O)(=O)c1ccccc1`, for which the EC50 was above 891 µM and the IC50 is 148 µM.
For `C=CCc1cc(C=C(C#N)C#N)cc(OC)c1O`, the EC50 is above 200 µM and the IC50 was determined as 97.7 µM.
Turning to `C=C(CCCO)[C@@H]1CC[C@](C)(O)[C@H]1C`, the outcome was inactive.
For `COc1cccc(/C(Cl)=C(\C=O)c2cccc(OC)c2)c1`, the EC50 is above 17.4 µM and the IC50 came out at 9.12 µM.
With `COc1ccc(-c2cc(C(=O)Nc3cc(C(F)(F)F)cc(C(F)(F)F)c3)c3ccccc3n2)cc1`, the EC50 was above 14.8 µM and the IC50 is above 14.8 µM.
Regarding `CS/C(c1ccccc1)=[N+](/C)[O-]`, the EC50 was above 813 µM and the IC50 turned out to be 589 µM.
For `CCSC1=C(C#N)C2(CCCCC2)C2=C(CC(C)(C)CC2=O)N1` the same measures were above 200 µM and above 200 µM.
On to `O=[N+]([O-])c1ccc2c(c1)Sc1ccccc1N2CCCCCl`, for which the EC50 is above 200 µM and the IC50 came out at 19.1 µM.
Turning to `O=c1c(-c2ccccc2)c2oc(c1-c1ccccc1)CSCc1cccc(c1)CSC2`, the EC50 is above 1.7 µM and the IC50 is above 1.7 µM.
Turning to `O=C1CC2(CCCC2)C(=O)N1c1cccc([N+](=O)[O-])c1`, the EC50 is above 347 µM and the IC50 was determined as 275 µM.
As to `O=C1Oc2cc3c(c4cccc1c24)OCN(c1ccccc1)C3`, the EC50 is above 33.1 µM and the IC50 was 24.5 µM.
With `CCOC(=O)/C(=C\c1cccc(C#N)c1)C(C)=O`, the EC50 was above 389 µM and the IC50 was 28.2 µM.
With `CN1C(=O)CSC1=S`, the EC50 is above 1700 µM; the IC50 was 4.79 µM and 36.3 µM.
For the molecule `COc1cc(N(C)C)c(OC)cc1/C=C1\Cc2ccccc2C1=O`, the EC50 is above 57.5 µM and the IC50 amounted to 46.8 µM.
Take `CC1=C(CCc2ccoc2)[C@@]2(C)CCCC(C)(C)C2C(=O)[C@@H]1O[C@H]1C(=O)C2C(C)(C)CCC[C@]2(C)[C@](O)(CCc2ccoc2)C1C` (some centres undefined): the EC50 was above 4.27 µM and the half-maximal inhibitory concentration (IC50) was above 4.27 µM.
As for `CN(C)c1cccc2c1C(=O)C=CC21CCc2ccc(N(C)C)c3c(N(C)C)ccc1c23` (centres undefined), the EC50 is above 200 µM and the IC50 was found to be 8.71 µM.
On to `C[Si](C)(/C(=C/COCc1ccccc1)CCOC1CCCCO1)c1ccccc1` (centres undefined), for which the EC50 was above 9.12 µM and the IC50 was above 9.12 µM.
For the molecule `CCCNP(=S)(NCCC)NCCC`, the EC50 is above 200 µM and the IC50 was above 200 µM.
Regarding `C=C(C)[C@@H]1CC[C@]2(C(=O)O)CC[C@]3(C)[C@H](CC[C@@H]4[C@@]5(C)CC[C@H](C(=O)/C=C/c6ccc(O)cc6)C(C)(C)[C@@H]5CC[C@]43C)[C@@H]12`, the EC50 was above 200 µM and the IC50 was 2.34 µM.
As for `C=CCOc1ccc(/C(N=Nc2ccc(C)cc2)=N/NC(=O)c2ccccc2)cc1OC`, the EC50 is above 200 µM and the IC50 worked out at 10 µM.
With `C[C@@H]1C[C@H]2[C@@H]3CCC4=CC(=O)CC[C@]4(C)[C@@]3(F)[C@@H](O)C[C@]2(C)[C@@]1(C)O`, the EC50 was above 200 µM and the IC50 was 87.1 µM.
Turning to `C=C1CC(COc2cc(=O)oc3ccccc23)(c2ccccc2)OC1=O` (centres undefined), the EC50 was above 200 µM and the IC50 came to 0.38 µM.
`O=C(O)CCCCCCCC(O)C(O)CCCCCCCC(=O)O` (centres undefined): the EC50 was above 195 µM and the IC50 was above 195 µM.
Consider `O=[N+]([O-])c1cc(C(F)(F)F)ccc1S(=O)(=O)N[C@@H]1CCCC[C@H]1NS(=O)(=O)c1ccc(C(F)(F)F)cc1[N+](=O)[O-]`, for which the EC50 is above 200 µM and the IC50 was 3.98 µM.
Consider `CCOC(=O)c1[nH]n(-c2ccccc2)c(=O)c1/C=N/C(=S)N=Nc1c(O)[nH]c2ccccc12`, for which the EC50 is above 200 µM and the IC50 is above 100 µM.
Take `CC(=O)N(O)CCCCCNC(=O)CCC(=O)N(O)CCCCCNC(=O)CCC(=O)N(O)CCCCCN`: the EC50 is above 110 µM; the IC50 is 4.57 µM and 3.63 µM.
Take `O=C(NCCc1ccccc1)c1c(O)c2ccccc2[nH]c1=O`: the EC50 was above 200 µM and the IC50 is above 200 µM.
In the case of `COC1/C=C/OC2(C)Oc3c(C)c(O)c4c(O)c(c(/C=N/NC5C6CC7CC(C6)CC5C7)c(O)c4c3C2=O)NC(=O)/C(C)=C/C=C/C(C)C(O)C(C)C(O)C(C)C(OC(C)=O)C1C` (centres undefined), the EC50 was above 200 µM and the IC50 came to 9.12 µM.
As to `CC(=O)OCCn1c(Cc2ccc(Cl)cc2)nn(C(C)=O)c1=O`, the EC50 was above 200 µM and the IC50 was above 200 µM.
As for `O=S(=O)(SSS(=O)(=O)c1ccc(Cl)c(Cl)c1)c1ccc(Cl)c(Cl)c1`, the EC50 is above 53.7 µM and the IC50 is above 53.7 µM.
In the case of `C[C@@H](NC(=O)[C@@H]1C[C@]1(C)CO)c1cccc2ccccc12`, the EC50 was above 200 µM and the IC50 is above 200 µM.
`Cc1ccccc1N=Nc1ccc(N/N=C2/CCCNC2=O)c(C)c1`: the EC50 was above 200 µM and the IC50 is 182 µM.
On to `COc1ccc(CNNCc2ccc(OC)cc2)cc1`, for which the EC50 was above 200 µM and the IC50 amounted to 110 µM.
The like results for `CC1(C)Oc2ccccc2OC1O` (centres undefined) were, in that order, above 200 µM and above 200 µM.
Take `CSc1sc(=S)sc1C(=O)N(C)c1ccccc1`: the EC50 is above 200 µM and the IC50 was above 200 µM.
As for `Cc1cc(=O)n(/C=C/C(=O)O)c2ccccc12`, the EC50 is above 200 µM and the IC50 is above 200 µM.
`CC(C)C1=CC23CCC4C(C)(C(=O)O)CCCC4(C)C2CC1C1C(=O)N(c2ccc(C(=O)O)cc2)C(=O)C13` (centres undefined): the EC50 is above 45.7 µM and the IC50 is above 45.7 µM.
As for `O/N=C1\CC2(N3CCOCC3)CCC1(Cc1ccccc1)CC2`, the EC50 was above 100 µM and the half-maximal inhibitory concentration (IC50) was above 100 µM.
`CN(C)P1(=O)OCC(C(C)(C)C)CN1c1ccccc1` (centres undefined): the EC50 is above 200 µM and the IC50 is above 200 µM.
As to `CC1(C)CCSC(/C=C/c2ccccc2)=N1`, the EC50 was above 20 µM and the IC50 was 4.17 µM.
For `CCC1CCC2c3c([nH]c4ccccc34)C3C(=O)N(c4ccc(OC)cc4)C(=O)C3C2C1` (centres undefined) the same measures were 33.9 µM and above 200 µM.
With `O=C1c2ccccc2C(=O)N1CCn1ccc(NC(c2ccccc2)(c2ccccc2)c2ccccc2)nc1=O`, the EC50 is above 13.8 µM and the IC50 is above 13.8 µM.
Regarding `CC1=CC(=Nc2cccc3c(N=C4C=C(C)C(=O)O4)cccc23)OC1=O`, the EC50 is above 200 µM and the IC50 came out at 1.41 µM.
Take `O=C1NCC2(CCN(CCCC3(c4ccc(F)cc4)OCCO3)CC2)N1c1ccccc1`: the EC50 is above 200 µM and the IC50 was above 200 µM.
